Test results published in patent US6376670B1, “Quinoline-indole antimicrobial agents, uses and compositions related thereto” (Sepracor Inc., priority 1997, dated 2002).
Where two headings read alike, the source gives them in different places.

Assays:
S. aureus (ATCC 25923) = experiment: MIC against S. aureus strain; type: cell-based; settings: Staphylococcus aureus, ATCC25923
Method: (§1) Stock solutions of compounds are prepared with a concentration of 10 mg/mL. These solutions are then diluted 1:4 to give a concentration of 2.5 mg/mL. The compounds are then serially diluted 1:2 for 6 iterations. The concentrations made for each compound are 2.5, 1.25, 0.625, 0.3125, 0.156, 0.078, and 0.039 mg/mL. A control sample (no compound) is run along with each compound tested. All dilutions are made in DMSO.
(§2) All wells of a 96 well microtiter plate are filled with 100 μL of BHI (Brain-Heart Infusion) broth. Columns on the plate are labeled 1-12, and rows are labeled A-H. Each column of wells is used to test one series of diluted compounds. Into each well of 100 μL of BHI broth, 1 μL of diluted compound is placed for a 1:100 dilution. This makes the final concentration of each drug series 25, 12.5, 6.25, 3.125, 1.56, 0.78, 0.39, and 0 μg/mL.
(§3) Test Organism: A sterile 15 mL screw cap tube is filled wth 3 mL of BHI broth. Next, 2-3 colonies of test organism are inoculated into the tube. The tube is then incubated at 37° C. in a CO2 (approx. 7%) atmosphere jar. The organisms are allowed to grow to the density of a 0.5 McFarland standard (10^8 cells/mL). The organism is then inoculated into each well of the microtiter plate containing the diluted compounds to be tested for MIC. The inoculum is 1 μL in volume and represents 10^5 to 10^6 cells/mL.
(§4) After inoculation the plates are covered and incubated at 37° C. and approx. 7-10% CO2 atmosphere overnight (about 16 hours). The plates are then observed for growth, the well with the lowest concentration of drug and no observable growth represents the well determining the MIC.

S. aureus (ATCC 29213) = experiment: MIC against S. aureus strain; type: cell-based; settings: Staphylococcus aureus, ATCC29213
Method: as §1, §2, §3, §4

S. aureus (ATCC 33591) = experiment: MIC against S. aureus strain; type: cell-based; settings: Staphylococcus aureus, ATCC33591
Method: as §1, §2, §3, §4

S. aureus (ATCC 33592) = experiment: MIC against S. aureus strain; type: cell-based; settings: Staphylococcus aureus, ATCC33592
Method: as §1, §2, §3, §4

Streptococcus pneumoniae = experiment: Determination of MIC values (BHI broth, 96 well microtiter plate); type: cell-based; settings: BHI broth; for MIC: Streptococcus pneumoniae, read-out: MIC S. pneu
Procedure, shortened: (§5)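 Organisms are grown in BHI at 37° C (about 7% CO2) to a 0.5 McFarland standard, then inoculated at 10^5 to 10^6 cells/mL into BHI holding twofold compound dilutions (final 25 down to 0.39 µg/mL, DMSO-diluted). After overnight incubation, MIC is the lowest concentration lacking growth.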

[1] = test system: methicillin-resistant Staphylococcus aureus (MRSA); experiment: as above; type: cell-based; settings: BHI broth; for MIC: Staphylococcus aureus, MRSA, read-out: MIC MRSA
Procedure, shortened: as §5

[2] = test system: vancomycin-resistant Enterococcus spp. (VRE); experiment: as above; type: cell-based; settings: BHI broth; for MIC: Enterococcus, VRE, read-out: MIC VREF
Procedure, shortened: as §5

[3] = Acute in vivo toxicity in mice, intraperitoneal injection; settings: in 10% w/v hydroxypropyl-β-cyclodextrin in 0.9% w/v saline, 5 mice
Method: Solutions of compounds in 10% w/v hydroxypropyl-β-cyclodextrin in 0.9% w/v saline were prepared. Doses of 40 mg/kg or 120 mg/kg of each compound were administered to mice (5 mice/compound/dose) via intraperitoneal injections. The mice […] for seven days.

[4] = 37° C., overnight (about 16 hours)
[5] = 16 h, 37° C., overnight (about 16 hours)

| MIC (S. aureus (ATCC 25923)) | MIC (S. aureus (ATCC 29213)) | MIC (S. aureus (ATCC 33591)) | MIC (S. aureus (ATCC 33592)) | SMILES | Mice Surviving on Day 7 ([3]; 40 mg/kg intraperitoneal) | Mice Surviving on Day 7 ([3]; 120 mg/kg intraperitoneal) | also measured |
| --- | --- | --- | --- | --- | --- | --- | --- |
| < 7 µg/mL | < 7 µg/mL | < 7 µg/mL | < 7 µg/mL | COc1ccc(NC(=O)c2cc(-c3c[nH]c4ccc(Br)cc34)nc3ccc(C#CCN4CCCCC4)cc23)cc1 [compound 2] | – | – | – |
| – | – | – | – | COC(=O)c1cc(-c2c[nH]c3ccc(Br)cc23)nc2cc(F)ccc12 [Example 307] | 100% | 100% | MIC (Streptococcus pneumoniae; S. pneu, overnight 37° C.): < 7 µg/mL; MIC ([1]; overnight 37° C.): < 7 µg/mL; MIC ([2]; VREF, overnight 37° C.): < 7 µg/mL |
| < 7 µg/mL | < 7 µg/mL | < 7 µg/mL | < 7 µg/mL | Brc1ccc2[nH]cc(-c3nc4ccc(C#CCN5CCCCC5)cc4c4c3CCO4)c2c1 [compound 8] | – | – | – |
| – | – | – | – | Clc1ccc2[nH]cc(-c3cc(Cl)c4ccccc4n3)c2c1 [Example 342] | 100% | 100% | MIC (Streptococcus pneumoniae; S. pneu, overnight 37° C.): < 7 µg/mL; MIC ([1]; overnight 37° C.): < 7 µg/mL; MIC ([2]; VREF, overnight 37° C.): > 25 µg/mL |
| – | – | – | – | Cn1cc(-c2cc(C(=O)NCCN)c3cc(C#CCN4CCCCC4)ccc3n2)c2cc(Br)ccc21 [Example 379] | 40% | 0% | – |
| – | – | – | – | NCCNC(=O)c1cc(-c2c[nH]c3ccc(Br)cc23)nc2ccc(I)cc12 [Example 107] | 100% | 0% | MIC (Streptococcus pneumoniae; [4]): < 7 µg/mL; MIC [1, 5]: < 7 µg/mL; MIC [2, 5]: < 7 µg/mL |
| – | – | – | – | Fc1ccc2c(-c3ccc4cc(Cl)ccc4n3)c[nH]c2c1 [Example 193] | 100% | 100% | MIC (Streptococcus pneumoniae; [4]): < 7 µg/mL; MIC [1, 5]: < 7 µg/mL; MIC [2, 5]: < 7 µg/mL |
| < 7 µg/mL | < 7 µg/mL | < 7 µg/mL | < 7 µg/mL | NCc1ccc(CNC(=O)c2cc(-c3c[nH]c4ccc(Br)cc34)nc3ccc(C#CCN4CCCCC4)cc23)cc1 [compound 1] | – | – | – |
| < 25 µg/mL | < 7 µg/mL | < 7 µg/mL | > 25 µg/mL | CC(C)CNC(=O)c1cc(-c2c[nH]c3ccc(Br)cc23)nc2ccc(C#CCN3CCCCC3)cc12 [compound 9] | – | – | – |
| – | – | – | – | Fc1ccc2c(-c3cc(Cl)c4ccc(Cl)cc4n3)c[nH]c2c1 [Example 461] | 100% | 100% | MIC (Streptococcus pneumoniae; 37° C., about 16 hours): < 7 µg/mL; MIC ([1]; 16 h, 37° C., about 16 hours): < 7 µg/mL; MIC ([2]; 16 h, 37° C., about 16 hours): < 7 µg/mL |
| – | – | – | – | Cc1ccc2[nH]cc(-c3cc(Cl)c4ccc(Cl)cc4n3)c2c1 [Example 474] | 100% | 100% | MIC (Streptococcus pneumoniae; 37° C., about 16 hours): < 7 µg/mL; MIC ([1]; 16 h, 37° C., about 16 hours): < 7 µg/mL; MIC ([2]; 16 h, 37° C., about 16 hours): < 25 µg/mL |
| – | – | – | – | OCc1cc(-c2c[nH]c3ccc(Br)cc23)nc2cc(F)ccc12 [Example 447] | 100% | 80% | MIC S. pneu (Streptococcus pneumoniae; 37° C., about 16 hours): < 7 µg/mL; MIC MRSA ([1]; 37° C., about 16 hours): < 7 µg/mL; MIC VREF ([2]; 37° C., about 16 hours): <7 µg/mL |
| – | – | – | – | NCCNC(=O)c1cc(-c2c[nH]c3ccc(Br)cc23)nc2cc(Cl)ccc12 [Example 316] | 80% | 0% | MIC (Streptococcus pneumoniae; S. pneu, overnight 37° C.): < 7 µg/mL; MIC ([1]; overnight 37° C.): < 7 µg/mL; MIC ([2]; VREF, overnight 37° C.): < 7 µg/mL |
| – | – | – | – | Cn1cc(-c2cc(C(=O)NCCN)c3cc(C#CCN4CCCCC4)c(Cl)cc3n2)c2cc(Br)ccc21 [Example 419] | 40% | 0% | MIC (Streptococcus pneumoniae; 37° C., about 16 hours): < 7 µg/mL; MIC ([1]; 16 h, 37° C., about 16 hours): < 7 µg/mL; MIC ([2]; 16 h, 37° C., about 16 hours): < 7 µg/mL |
| – | – | – | – | Cn1cc(-c2cc(C(=O)NCCN)c3cc(I)ccc3n2)c2cc(Br)ccc21 [Example 359] | 100% | 100% | MIC (Streptococcus pneumoniae; S. pneu, overnight 37° C.): < 7 µg/mL; MIC ([1]; overnight 37° C.): < 7 µg/mL; MIC ([2]; VREF, overnight 37° C.): < 7 µg/mL |

| SMILES | MIC (S. aureus (ATCC 25923)) | MIC (S. aureus (ATCC 29213)) | MIC (S. aureus (ATCC 33591)) | MIC (S. aureus (ATCC 33592)) | Mice Surviving on Day 7 ([3]; 40 mg/kg intraperitoneal) | Mice Surviving on Day 7 ([3]; 120 mg/kg intraperitoneal) | also measured |
| --- | --- | --- | --- | --- | --- | --- | --- |
| NCCNC(=O)c1cc(-c2c[nH]c3ccc(Br)cc23)nc2cc(Cl)c(C#CCN3CCCCC3)cc12 [compound 4] | < 7 µg/mL | < 7 µg/mL | < 7 µg/mL | < 7 µg/mL | – | – | – |
| COc1ccc2nc(-c3c[nH]c4ccc(Cl)cc34)ccc2c1 [compound 5] | < 7 µg/mL | < 7 µg/mL | < 7 µg/mL | < 7 µg/mL | – | – | – |
